Laboratory results from the supplement of paper PMC10307832.

Columns and labels:
Assay in all cases: relative viability (nuclei count vs DMSO), 5 days (fraction); higher = more cells survive
[1] = tested on: NCI-H1437
Method in brief: (§1)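 Lung cancer cell lines were pin-tool dosed in 1536-well plates on the day after seeding, with either a lone drug or a fixed anchor-drug dose plus five library-drug doses (not always all listed) in √10 steps. Nuclei were counted on 4× images after 5 days. Relative viability is the ratio of treated-well to vehicle-well nuclei counts, with each value a median of duplicate plates.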

[2] = tested on: NCI-H2228
Method in brief: as §1

[3] = tested on: 201T
Method in brief: as §1

[4] = tested on: NCI-H1395
Method in brief: as §1

[5] = tested on: NCI-H1793
Method in brief: as §1

[6] = tested on: NCI-H1792
Method in brief: as §1

[7] = tested on: NCI-H1944
Method in brief: as §1

[8] = tested on: LCLC-103H
Method in brief: as §1

[9] = tested on: BEN
Method in brief: as §1

[10] = tested on: CAL-12T
Method in brief: as §1

[11] = tested on: NCI-H2405
Method in brief: as §1

Structure (SMILES): Cc1sc2c(c1C)C(c1ccc(Cl)cc1)=N[C@@H](CC(=O)OC(C)(C)C)c1nnc(C)n1-2 [JQ1] + C[C@]1(O)C[C@@H](c2nc(-c3ccc4ccc(-c5ccccc5)nc4c3)c3c(N)nccn32)C1 [Linsitinib] (partner 1 µM)
- relative viability ([1]; first compound 1.265 µM): 0.228
- relative viability ([1]; first compound 4 µM): 0.18
- relative viability ([2]; first compound 0.04 µM): 1
- relative viability ([2]; first compound 0.1265 µM): 0.743
- relative viability ([2]; first compound 0.4 µM): 0.688
- relative viability ([2]; first compound 1.265 µM): 0.404
- relative viability ([2]; first compound 4 µM): 0.357
- relative viability ([3]; first compound 0.04 µM): 0.996
- relative viability ([3]; first compound 0.1265 µM): 1.08
- relative viability ([3]; first compound 0.4 µM): 0.924
- relative viability ([3]; first compound 1.265 µM): 0.607
- relative viability ([3]; first compound 4 µM): 0.511
- relative viability ([4]; first compound 0.04 µM): 0.983
- relative viability ([4]; first compound 0.1265 µM): 0.797
- relative viability ([4]; first compound 0.4 µM): 0.788
- relative viability ([4]; first compound 1.265 µM): 0.562
- relative viability ([4]; first compound 4 µM): 0.486
- relative viability ([5]; first compound 0.04 µM): 0.936
- relative viability ([5]; first compound 0.1265 µM): 0.755
- relative viability ([5]; first compound 0.4 µM): 0.923
- relative viability ([5]; first compound 1.265 µM): 0.715
- relative viability ([5]; first compound 4 µM): 0.952
- relative viability ([6]; first compound 0.04 µM): 0.587
- relative viability ([6]; first compound 0.4 µM): 0.569
- relative viability ([6]; first compound 1.265 µM): 0.31
- relative viability ([6]; first compound 4 µM): 0.274
- relative viability ([7]; first compound 0.04 µM): 1.15
- relative viability ([7]; first compound 0.1265 µM): 0.874
- relative viability ([7]; first compound 0.4 µM): 0.922
- relative viability ([7]; first compound 1.265 µM): 0.623
- relative viability ([7]; first compound 4 µM): 0.557
- relative viability ([8]; first compound 0.04 µM): 1.01
- relative viability ([8]; first compound 0.1265 µM): 0.751
- relative viability ([8]; first compound 0.4 µM): 0.805
- relative viability ([8]; first compound 1.265 µM): 0.608
- relative viability ([8]; first compound 4 µM): 0.456
- relative viability ([9]; first compound 0.04 µM): 0.886
- relative viability ([9]; first compound 0.1265 µM): 0.742
- relative viability ([9]; first compound 0.4 µM): 0.524
- relative viability ([9]; first compound 1.265 µM): 0.347
- relative viability ([9]; first compound 4 µM): 0.224
- relative viability ([10]; first compound 0.04 µM): 0.793
- relative viability ([10]; first compound 0.1265 µM): 0.794
- relative viability ([10]; first compound 0.4 µM): 0.68
- relative viability ([10]; first compound 1.265 µM): 0.275
- relative viability ([10]; first compound 4 µM): 0.232
- relative viability ([11]; first compound 0.04 µM): 0.919
- relative viability ([11]; first compound 0.4 µM): 0.779
- relative viability ([11]; first compound 1.265 µM): 0.535
- relative viability ([11]; first compound 4 µM): 0.537
